In US10858335B2 (Rigel Pharmaceuticals, Inc., priority 2014, dated 2020):

Test system: GDF8 signaling (p-SMAD-3 (Ser423/425))
Assay: AlphaScreen SureFire SMAD3 (p-Ser423/425) assay, GDF8-stimulated cells (GDF pSMAD)
Format: cell-based
Conditions: GDF8-stimulated pSMAD3, MPC11; tested as the salt form given; read-out: GDF pSMAD (MPC11) (μM), inhibition of GDF8 signaling

IC50 [µM] | SMILES
0.2 | CN(C)CCNc1ncnc2ccc(-c3cccnc3-c3cc(Cl)ccc3F)cc12 [compound 1093]

Same assay, conditions: Mus musculus, MPC-11, GDF8-stimulated pSMAD3, MPC11; tested as the salt form given; read-out: GDF pSMAD (MPC11) (μM), inhibition of GDF8 signaling

SMILES | IC50 [µM]
Cc1cc(-c2ncccc2-c2ccc3ncc(C#N)n3c2)c(C)cc1F [compound 1063] | 4.45
Cc1cc(-c2ncccc2-c2ccc3ncnn3c2)c(C)cc1F [compound 1064] | 0.804
c1cnc(-c2ccc3occc3c2)c(-c2ccc3ncsc3c2)c1 [compound 1073] | 0.48

Results, then the compound that gave them:

IC50 [µM] | SMILES
9.67 | c1cnc(-c2cccc3c2OCC3)c(-c2ccc3ncsc3c2)c1 [compound 1076]
0.309 | Nc1ncnc2ccc(-c3cccnc3-c3ccc4occc4c3)cc12 [compound 1083]
